This is an account of results in patent US8497283B2, “Autotaxin inhibitors” (Merck Patent GmbH, priority 2009, dated 2013).

Structures are written as SMILES.

For orientation: IC50 means the midpoint of a concentration-inhibition curve.

The target of the assay is T1, recombinant autotaxin (Homo sapiens, UniProt Q13822).
T1 construct: made in house; host or cells: Hi5 insect cells (baculovirus)
The assay is described as follows: Autotaxin assay (Amplex Red fluorescence, LPC substrate). Particulars: for IC50: ten serial 1:3 dilutions starting at 30 μM, duplicates, 75 μM LPC, values given as upper bounds. The class given is biochemical. As for the experimental part:
Autotaxin activity is measured indirectly by means of Amplex Red Reagent. In this course, Amplex Red is measured as fluorogenic indicator for generated H2O2. Autotaxin converts substrate lysophosphatidylcholine (LPC) to phosphocholine and lysophosphatidylic acid (LPA). After the conversion phosphocholine is reacted with alkaline phosphatase to obtain inorganic phosphate and choline. During the next step choline is oxidized with choline oxidase to yield betaine, whereby H2O2 is generated. H2O2 reacts with Amplex Red Reagent in the presence of peroxidase (Horseradish peroxidase) in an 1:1 stochiometry and yields highly fluorescent resorufin. The generated fluorescence is measured in a reaction-dependent kinetic mode in order to enable subtraction of fluorescence signals of possible other fluorescent compounds that are not part of the reaction from total measured fluorescence.
1.5 μl of a standard solution or of the compounds of the invention are dissolved in 20 mM Hepes pH 7.2 with maximally 7.7% DMSO in individual concentrations. The resulting solution is pre-incubated together with 10 μl (16 ng) of highly purified recombinant autotaxin in a black 384-hole microtiter plate for 30 min at 22° C.
Thereafter, the reaction is started through the addition of 5 μl L-a-lysophosphatidyl-choline (LPC), whereby the final concentration of LPC is 75 μM. The mixture is incubated for 90 min. at 37° C. After the incubation Amplex Red Reagent, peroxidase (Horseradish peroxidase) and choline oxidase are added. The fluorescence is immediately measured at a wavelength of 612 nm with an excitation wavelength of 485 nm in a “Tecan Ultra multimode” fluorescence reader. The activity of autotaxin is indirectly calculated via the amount of detected generated H2O2.
For IC50 analysis, ten serial 1:3 dilutions starting at 30 μM for each compound were run in duplicates.
IC50 values were calculated on normalized data. For normalization, control wells were added to each assay plate and the signal of uninhibited control wells was set to 100%, whereas the signal inhibited by 500 μM C14 LPA, (Avanti Polar Lipids, Cat#857120P) was set to 0%. Curves were fitted and IC50 values calculated by the following model using proprietory analysis software: Y=Bottom+(100−Bottom)/(1+10^((Log IC50−X)*HillSlope))
Where X is the logarithm of concentration. Y is the response;
Y starts at Bottom and goes to Top with a sigmoid shape.
Protein: Recombinant autotaxin (baculoviral Hi5 expression)
Substrate: L-a-lysophosphatidyl choline (chicken egg); Avanti Polar Lipids #830071P
Standard: C14 LPA, Avanti Polar Lipids, Cat#857120P
Detection Reagent Amplex Red Reagent; Invitrogen #A12222; dissolved in 1.923 ml of DMSO peroxidase Type VI-A (horseradish), Sigma #P6782; dissolved in 7.45 ml of test buffer, Choline Oxidase; Sigma #C5896; dissolved in 2.47 ml test buffer
Detection Reagent Mix: 1:100 dilution of Amplex Red Regent in test buffer
Test buffer: 200 mM Tris-HCl, Merck, Cat #1.08219, pH 7.9; 0.1% BSA, lipid free, Roche Cat#775835

With `O=C(NCCc1ccc(Br)cc1)c1[nH]nc2c1CCN(C(=O)c1ccc3[nH]nnc3c1)C2` [Compound 44, 6-(1H-Benzotriazole-5-carbonyl)-4,5,6,7-tetrahydro-2H-pyrazolo[3,4-c]pyridine-3-carboxylic acid [2-(4-bromo-phenyl)-ethyl]-amide], the IC50 is less than 10 µM. Still for that read-out and setting: the value for `COc1ccc(Cl)cc1CNC(=O)c1[nH]nc2c1CCN(C(=O)c1ccc3[nH]nnc3c1)C2` [Compound 45, 6-(1H-Benzotriazole-5-carbonyl)-4,5,6,7-tetrahydro-2H-pyrazolo[3,4-c]pyridine-3-carboxylic acid 5-chloro-2-methoxy-benzylamide] was less than 10 µM. As to `O=C(NCc1ccc(Cl)cc1F)c1[nH]nc2c1CCN(C(=O)c1ccc3[nH]nnc3c1)C2` [Compound 46, 6-(1H-Benzotriazole-5-carbonyl)-4,5,6,7-tetrahydro-2H-pyrazolo[3,4-c]pyridine-3-carboxylic acid 4-chloro-2-fluoro-benzylamide], for the setting “percent of uninhibited control (100%) at 1E−05 M compound”, the “% CTRL (1E−05)” value was found to be 76%. With `O=C(NCCc1ccc(F)cc1)c1[nH]nc2c1CCN(C(=O)c1ccc3[nH]nnc3c1)C2` [Compound 47, 6-(1H-Benzotriazole-5-carbonyl)-4,5,6,7-tetrahydro-2H-pyrazolo[3,4-c]pyridine-3-carboxylic acid [2-(4-fluoro-phenyl)-ethyl]-amide], the IC50 is less than 10 µM. The same measure, in the same setting: under `O=C(Nc1ccc2c(c1)CCN(C(=O)c1ccc3[nH]nnc3c1)C2)OCc1cc(Cl)cc(Cl)c1` [Compound 48, [2-(1H-Benzotriazole-5-carbonyl)-1,2,3,4-tetrahydro-isoquinolin-6-yl]-carbamic acid 3,5-dichloro-benzyl ester] stands less than 10 µM; under `O=C(NCc1ccc(SC(F)(F)F)cc1)c1[nH]nc2c1CCN(C(=O)c1ccc3[nH]nnc3c1)C2` [Compound 49, 6-(1H-Benzotriazole-5-carbonyl)-4,5,6,7-tetrahydro-2H-pyrazolo[3,4-c]pyridine-3-carboxylic acid 4-trifluoromethylsulfanyl-benzylamide], less than 30 µM; under `O=C(Nc1ccc2[nH]nnc2c1)c1n[nH]c2c1CCN(C(=O)OCc1ccc(C(F)(F)F)cc1)C2` [Compound 50, 3-(1H-Benzotriazol-5-ylcarbamoyl)-1,4,5,7-tetrahydro-pyrazolo[3,4-c]pyridine-6-carboxylic acid 4-trifluoromethyl-benzyl ester], less than 1 µM. The same measure, in the same setting: the value for `O=C(NCc1ccc(F)c(Br)c1)c1[nH]nc2c1CCN(C(=O)c1ccc3[nH]nnc3c1)C2` [Compound 51, 6-(1H-Benzotriazole-5-carbonyl)-4,5,6,7-tetrahydro-2H-pyrazolo[3,4-c]pyridine-3-carboxylic acid 3-bromo-4-fluoro-benzylamide] was less than 1 µM. Still for that read-out and setting: the value for `O=C(Nc1ccc2[nH]nnc2c1)c1[nH]nc2c1CCN(C(=O)OCc1cc(Cl)cc(Cl)c1)C2` [Compound 52, 3-(1H-Benzotriazol-5-ylcarbamoyl)-2,4,5,7-tetrahydro-pyrazolo[3,4-c]pyridine-6-carboxylic acid 3,5-dichloro-benzyl ester] was less than 1 µM; that for `O=C(Nc1ccc2[nH]nnc2c1)c1[nH]nc2c1CCN(C(=O)OCc1cc(C(F)(F)F)cc(C(F)(F)F)c1)C2` [Compound 53, 3-(1H-Benzotriazol-5-ylcarbamoyl)-2,4,5,7-tetrahydro-pyrazolo[3,4-c]pyridine-6-carboxylic acid 3,5-bis-trifluoromethyl-benzyl ester] was less than 1 µM; that for `O=C(Nc1ccc2[nH]nnc2c1)c1[nH]nc2c1CCN(C(=O)OCc1ccc(C(F)(F)F)c(Cl)c1)C2` [Compound 54, 3-(1H-Benzotriazol-5-ylcarbamoyl)-2,4,5,7-tetrahydro-pyrazolo[3,4-c]pyridine-6-carboxylic acid 3-chloro-4-trifluoromethyl-benzyl ester] was less than 10 µM.
